In US11396517B1, “Exo-aza spiro inhibitors of menin-MLL interaction” (Janssen Pharmaceutica NV, priority 2017, dated 2022):
Where two headings read alike, the source gives them in different places.

Columns and labels:
MOLM14 = test: Proliferation assay B (spheroid assay) MOLM14; format: cell-based, human; conditions: MOLM14 cells, confluence at day 8, absolute IC50, read-out: (3b) Spheroid assay MOLM14 (IC50(μM)) Assay B
Protocol: 3b) Proliferation Assay B
The anti-proliferative effect of menin/MLL protein/protein interaction inhibitor test compounds was assessed in human leukemia cell lines. The cell lines MV-4-11 and MOLM14 harbor MILL translocations and express the MILL fusion proteins MLL-AF4 and MLL-AF9, respectively, as well as the wildtype protein from the second allele. […] K562 was used as a control cell line containing two MLL wildtype alleles in order to exclude compounds that display general cytotoxic effects.
MV-4-11 and MOLM14 were cultured in RPMI-1640 (Sigma Aldrich) supplemented with 10% fetal bovine serum (HyClone), 2 mM L-glutamine (Sigma Aldrich) and 50 μg/ml gentamycin (Gibco). K562 were propagated in RPMI-1640 (Sigma Aldrich) supplemented with 20% fetal bovine serum (HyClone), 2 mM L-glutamine (Sigma Aldrich) and 50 μg/ml gentamycin (Gibco).
In order to assess the anti-proliferative effects, 1,500 MV-4-11, 300 MOLM14 cells or 750 K562 cells were seeded in 200 μl media per well in 96-well round bottom, ultra-low attachment plates (Costar, catalogue number 7007). Cell seeding numbers were chosen based on growth curves to ensure linear growth throughout the experiment. Test compounds were added at different concentrations and the DMSO content was normalized to 0.3%. Cells were incubated for 8 d at 37° C. and 5% CO2. Spheroid like growth was measured in real-time by live-cell imaging (IncuCyteZOOM, Essenbio, 4× objective) acquiring images at day 8. Confluence (%) as a measure of spheroid size was determined using an integrated analysis tool.
In order to determine the effect of the test compounds over time, the confluence in each well as a measure of spheroid size, was calculated. Confluence […] at the beginning of the experiment (t=0) was used as baseline for the calculation.
Absolute IC50 values were calculated as percent change in confluence as follows:
LC=Low Control: cells treated with 1 μM of the cytotoxic agent staurosporin
HC=High Control: Mean confluence (%) (DMSO treated cells) % Effect=100−(100*(Sample−LC)/(HC−LC))
To determine the IC50 a curve is fitted to the plot of % Effect vs Log 10 compound concentration using a sigmoidal fit with a variable slope and fixing the maximum to 100% and the minimum to 0%.

menin = target: T1, menin (Homo sapiens, UniProt O00255, T541A); test: Menin/MLL homogenous time-resolved fluorescence (HTRF) assay; format: binding
T1 construct: Menin (a.a. 1-610-6×his tag)
T1 sequence (O00255 with tags, fused parts or gaps T541A): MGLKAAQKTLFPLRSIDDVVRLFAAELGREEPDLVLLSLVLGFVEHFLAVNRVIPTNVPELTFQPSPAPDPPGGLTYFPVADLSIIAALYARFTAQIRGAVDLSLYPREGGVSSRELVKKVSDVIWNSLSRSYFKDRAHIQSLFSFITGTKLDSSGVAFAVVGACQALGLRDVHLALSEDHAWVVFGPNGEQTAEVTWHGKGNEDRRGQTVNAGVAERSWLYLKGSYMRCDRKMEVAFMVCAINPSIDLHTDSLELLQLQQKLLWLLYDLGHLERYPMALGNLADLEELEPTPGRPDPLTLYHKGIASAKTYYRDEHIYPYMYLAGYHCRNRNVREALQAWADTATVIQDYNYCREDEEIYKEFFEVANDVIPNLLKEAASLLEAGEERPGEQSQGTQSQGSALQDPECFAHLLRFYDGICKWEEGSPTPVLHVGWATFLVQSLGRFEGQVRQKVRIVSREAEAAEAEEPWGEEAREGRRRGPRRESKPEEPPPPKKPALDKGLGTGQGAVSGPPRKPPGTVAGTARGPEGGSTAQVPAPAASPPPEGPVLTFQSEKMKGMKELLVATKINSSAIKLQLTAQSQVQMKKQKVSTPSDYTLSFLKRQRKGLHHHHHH
In short: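 Terbium-labeled menin (aa 1-610, His-tagged; […]) preincubated 5 min with compound, then 75 nM FITC-MBM1 peptide for 15 min, ambient, Tris pH 7.5, 0.5% DMSO. HTRF 520/490 ratio; 11-point 3-fold titration; IC50 from % inhibition fit.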

[1] = location 2, read-out: (2) location 2 Menin HTRF assay (IC50 (nM))

| SMILES | IC50 (MOLM14; Homo sapiens, MOLM-14, 192 h) [µM] | IC50 (menin; [1]) [nM] | IC50 (MOLM14) [µM] | IC50 (menin; location 1, read-out: (2) location 1 Menin HTRF assay (IC50 (nM))) [nM] |
| --- | --- | --- | --- | --- |
| CS(=O)(=O)NCc1ccc(NC2CC3(CCN(c4ncnc5sc(CC(F)(F)F)cc45)C3)C2)cc1 (single isomer, unassigned) [Compound 367] | > 3.75 | 63.6 |  |  |
| CS(=O)(=O)NCc1ccc(NC2CC3(CCN(c4ncnc5sc(CC(F)(F)F)cc45)C3)C2)cc1 (single isomer, unassigned) [Compound 368] |  | 2.9 | 2.61 |  |
| N#CCc1ccc(NC2CC3(CCN(c4nc(N)nc5sc(CC(F)(F)F)cc45)C3)C2)cc1 (single isomer, unassigned) [Compound 379] | > 3.75 | 1.4 |  |  |
| Nc1nc(N2CCC3(CC(Nc4ccc5[nH]c(=O)[nH]c5c4)C3)C2)c2cc(CC(F)(F)F)sc2n1 (single isomer, unassigned) [Compound 382] | > 3.75 | 27.9 |  |  |
| CNc1nc(N2CCC3(CC(Nc4ccc5[nH]c(=O)[nH]c5c4)C3)C2)c2cc(CC(F)(F)F)sc2n1 (single isomer, unassigned) [Compound 394] | > 3.75 | 13.8 |  |  |
| CNc1nc(N2CCC3(CC(Nc4ccc5oc(=O)[nH]c5c4)C3)C2)c2cc(CC(F)(F)F)sc2n1 (single isomer, unassigned) [Compound 397] | > 3.75 | 4.4 |  |  |
| CNc1nc(N2CCC3(CC(Nc4ccc5oc(=O)[nH]c5c4)C3)C2)c2cc(CC(F)(F)F)sc2n1 (single isomer, unassigned) [Compound 398] |  | 16.2 | > 3.75 |  |
| CC1CN(C(=O)c2ccc(NC3CC4(CCN(c5ncnc6sc(CC(F)(F)F)cc56)C4)C3)cc2)CC(C)O1 (single isomer, unassigned) [Compound 405] | > 3.75 | 1100 |  |  |
| CC1CN(C(=O)c2ccc(NC3CC4(CCN(c5ncnc6sc(CC(F)(F)F)cc56)C4)C3)cc2)CC(C)O1 (single isomer, unassigned) [Compound 406] |  | 36 | > 3.75 |  |
| COC[C@H]1COCCN1C(=O)c1ccc(NC2CC3(CCN(c4ncnc5sc(CC(F)(F)F)cc45)C3)C2)cc1 (single isomer, unassigned) [Compound 407] | > 3.75 | 1020 |  |  |
| COC[C@H]1COCCN1C(=O)c1ccc(NC2CC3(CCN(c4ncnc5sc(CC(F)(F)F)cc45)C3)C2)cc1 (single isomer, unassigned) [Compound 408] |  | 16.4 | > 3.75 |  |
| O=C(c1ccc(NC2CC3(CCN(c4ncnc5sc(CC(F)(F)F)cc45)C3)C2)cc1)N1CCS(=O)(=O)CC1 (single isomer, unassigned) [Compound 411] | > 3.75 | 101 |  |  |
| O=C(c1ccc(NC2CC3(CCN(c4ncnc5sc(CC(F)(F)F)cc45)C3)C2)cc1)N1CCS(=O)(=O)CC1 (single isomer, unassigned) [Compound 412] |  | 7510 | > 3.75 |  |
| CNC(=O)c1cnc(NC2CC3(CCN(c4ncnc5sc(CC(F)(F)F)cc45)C3)C2)cn1 (single isomer, unassigned) [Compound 418] | > 3.75 | 749 |  |  |
| CNC(=O)c1cnc(NC2CC3(CCN(c4ncnc5sc(CC(F)(F)F)cc45)C3)C2)cn1 (single isomer, unassigned) [Compound 419] |  | 10.8 | 3.04 |  |
| O=C(c1ccc(NC2CC3(CCN(c4ncnc5sc(CC(F)(F)F)cc45)C3)C2)nn1)N1CCOCC1 (single isomer, unassigned) [Compound 420] | > 3.75 | 3380 |  |  |
| O=C(c1ccc(NC2CC3(CCN(c4ncnc5sc(CC(F)(F)F)cc45)C3)C2)nn1)N1CCOCC1 (single isomer, unassigned) [Compound 421] |  | 208 | > 3.75 |  |
| CNC(=O)c1ccc(N[C@@H]2CC[C@@]3(CCN(c4ncnc5sc(CC(F)(F)F)cc45)C3)C2)cc1 (stereo in doubt) [Compound 134] | 1.29 | 1.6 |  |  |

| SMILES | IC50 (MOLM14; Homo sapiens, MOLM-14, 192 h) [µM] | IC50 (menin; [1]) [nM] | IC50 (MOLM14) [µM] | IC50 (menin; location 1, read-out: (2) location 1 Menin HTRF assay (IC50 (nM))) [nM] |
| --- | --- | --- | --- | --- |
| CNC(=O)c1ccc(N[C@H]2CC[C@@]3(CCN(c4ncnc5sc(CC(F)(F)F)cc45)C3)C2)cc1 (stereo in doubt) [Compound 135] | > 3.75 | 23.9 |  |  |
| CNC(=O)c1ccc(N[C@@H]2CC[C@]3(CCN(c4ncnc5sc(CC(F)(F)F)cc45)C3)C2)cc1 (stereo in doubt) [Compound 136] | > 3.75 | 409 |  |  |
| CNC(=O)c1ccc(N[C@H]2CC[C@]3(CCN(c4ncnc5sc(CC(F)(F)F)cc45)C3)C2)cc1 (stereo in doubt) [Compound 137] | > 3.75 | 5.7 |  |  |
| FC(F)(F)Cc1cc2c(N3CC[C@@]4(CC[C@@H](Nc5ccc(-c6cc[nH]n6)cc5)C4)C3)ncnc2s1 (stereo in doubt) [Compound 139] | 0.56 | 3.5 |  |  |
| FC(F)(F)Cc1cc2c(N3CC[C@@]4(CC[C@H](Nc5ccc(-c6cc[nH]n6)cc5)C4)C3)ncnc2s1 (stereo in doubt) [Compound 140] | 1.82 | 30.9 |  |  |
| FC(F)(F)Cc1cc2c(N3CC[C@]4(CC[C@@H](Nc5ccc(-c6cc[nH]n6)cc5)C4)C3)ncnc2s1 (stereo in doubt) [Compound 141] | 2.3 | 3.9 |  |  |
| FC(F)(F)Cc1cc2c(N3CC[C@]4(CC[C@H](Nc5ccc(-c6cc[nH]n6)cc5)C4)C3)ncnc2s1 (stereo in doubt) [Compound 142] | 0.6 | 45.7 |  |  |
| CNC(=O)c1ccc(NC2CC3(CCN(c4ncnc5sc(CC(F)(F)F)cc45)C3)C2)c(F)c1 (stereo not shown) [Compound 66] | > 3.75 | 26.8 |  |  |
| CNC(=O)c1ccc(NC2CC3(CCN(c4ncnc5sc(CC(F)(F)F)cc45)C3)C2)cc1OCCN(C)C (stereo not shown) [Compound 76] | > 3.75 | 354 |  |  |
| O=C(NCCO)c1ccc(NC2CC3(CCN(c4ncnc5sc(CC(F)(F)F)cc45)C3)C2)cc1 (stereo not shown) [Compound 83] | > 3.75 | 58.7 |  |  |
| COCCNC(=O)c1ccc(NC2CC3(CCN(c4ncnc5sc(CC(F)(F)F)cc45)C3)C2)cc1 (stereo not shown) [Compound 85] | 1.13 | 0.7 |  |  |
| O=C(NCCN1CCOCC1)c1ccc(NC2CC3(CCN(c4ncnc5sc(CC(F)(F)F)cc45)C3)C2)cc1 (stereo not shown) [Compound 87] | > 3.75 | 191 |  |  |
| CS(=O)(=O)N[C@H]1CC[C@H](NC2CC3(CCN(c4ncnc5sc(CC(F)(F)F)cc45)C3)C2)CC1 (stereo partly shown) [Compound 102] | > 3.75 | 362 |  | 342 |
| CCS(=O)(=O)N[C@H]1CC[C@H](CNC2CC3(CCN(c4ncnc5sc(CC(F)(F)F)cc45)C3)C2)CC1 (stereo partly shown) [Compound 106] | 3.39 | 17.8 |  |  |
| O=C1NCCN1Cc1ccc(NC2CC3(CCN(c4ncnc5sc(CC(F)(F)F)cc45)C3)C2)cc1 (stereo not shown) [Compound 107] | > 3.75 | 22.1 |  |  |
| CNC(=O)c1ccc(NC2CC3(CCN(c4ncnc5sc(CC(F)(F)F)cc45)C3)C2)cc1F (stereo not shown) [Compound 203] | 2.39 | 2.8 |  |  |
| CNC(=O)c1ccc(NC2CC3(CCN(c4ncnc5sc(CC(F)(F)F)cc45)C3)C2)c(C)c1 (stereo not shown) [Compound 212] |  | 58.1 | > 3.75 |  |
| CNC(=O)c1ccc(NC2CC3(CCN(c4ncnc5sc(CC(F)(F)F)cc45)C3)C2)cc1C (stereo not shown) [Compound 237] |  | 489 | > 3.75 |  |
